# Source: patent publication US8192962B2, “Processes for detecting toxic substances” (Daikin Industries, Ltd., priority 2001, dated 2012)
# System: Unknown protein yeast genes
# Test: DNA chip mRNA expression in yeast, unknown protein yeast genes (Table 1)
# Type: cell-based, Saccharomyces cerevisiae S288C
# In short: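 First, S288C yeast grown in YPD at 25° C. are dosed in log phase with one toxicant (growth-inhibiting, not lethal) for 2 h. Next, total RNA is extracted and poly(A) mRNA isolated and reverse-transcribed with Cy3/Cy5-dUTP. Finally, whole-genome chip fluorescence is read relative to unexposed cells.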
structure (smiles),measurement,setting,value
"[Cl][Pb][Cl] [(4), PbCl2]",The level of expressed mRNA in the presence of chemical substance/The level of expressed mRNA in the absence of chemical substance,"yeast gene YKL195W, incubated two hours with chemical substance",1.1
same,The level of expressed mRNA in the presence of chemical substance/The level of expressed mRNA in the absence of chemical substance,"yeast gene YKR091W, incubated two hours with chemical substance",3.5
same,The level of expressed mRNA in the presence of chemical substance/The level of expressed mRNA in the absence of chemical substance,"yeast gene YLR054C, incubated two hours with chemical substance",2.4
same,The level of expressed mRNA in the presence of chemical substance/The level of expressed mRNA in the absence of chemical substance,"yeast gene YLR149C, incubated two hours with chemical substance",2.3
same,The level of expressed mRNA in the presence of chemical substance/The level of expressed mRNA in the absence of chemical substance,"yeast gene YLR152C, incubated two hours with chemical substance",0.9
same,The level of expressed mRNA in the presence of chemical substance/The level of expressed mRNA in the absence of chemical substance,"yeast gene YLR194C, incubated two hours with chemical substance",3.6
same,The level of expressed mRNA in the presence of chemical substance/The level of expressed mRNA in the absence of chemical substance,"yeast gene YLR324W, incubated two hours with chemical substance",1.0
same,The level of expressed mRNA in the presence of chemical substance/The level of expressed mRNA in the absence of chemical substance,"yeast gene YLR350W, incubated two hours with chemical substance",2.3
same,The level of expressed mRNA in the presence of chemical substance/The level of expressed mRNA in the absence of chemical substance,"yeast gene YLR387C, incubated two hours with chemical substance",0.6
same,The level of expressed mRNA in the presence of chemical substance/The level of expressed mRNA in the absence of chemical substance,yeast gene YLR460C,1.1
same,The level of expressed mRNA in the presence of chemical substance/The level of expressed mRNA in the absence of chemical substance,"yeast gene YML117W, incubated two hours with chemical substance",1.6
same,The level of expressed mRNA in the presence of chemical substance/The level of expressed mRNA in the absence of chemical substance,"yeast gene YMR009W, incubated two hours with chemical substance",1.9
same,The level of expressed mRNA in the presence of chemical substance/The level of expressed mRNA in the absence of chemical substance,"yeast gene YMR067C, incubated two hours with chemical substance",0.4
same,The level of expressed mRNA in the presence of chemical substance/The level of expressed mRNA in the absence of chemical substance,yeast gene YMR090W,3.5
same,The level of expressed mRNA in the presence of chemical substance/The level of expressed mRNA in the absence of chemical substance,"yeast gene YMR095C, incubated two hours with chemical substance",1.0
same,The level of expressed mRNA in the presence of chemical substance/The level of expressed mRNA in the absence of chemical substance,"yeast gene YMR097C, incubated two hours with chemical substance",1.6
same,The level of expressed mRNA in the presence of chemical substance/The level of expressed mRNA in the absence of chemical substance,"yeast gene YMR102C, incubated two hours with chemical substance",0.8
same,The level of expressed mRNA in the presence of chemical substance/The level of expressed mRNA in the absence of chemical substance,"yeast gene YMR107W, incubated two hours with chemical substance",18.4
same,The level of expressed mRNA in the presence of chemical substance/The level of expressed mRNA in the absence of chemical substance,"yeast gene YMR180C, incubated two hours with chemical substance",1.3
same,The level of expressed mRNA in the presence of chemical substance/The level of expressed mRNA in the absence of chemical substance,"yeast gene YMR184W, incubated two hours with chemical substance",1.1
same,The level of expressed mRNA in the presence of chemical substance/The level of expressed mRNA in the absence of chemical substance,"yeast gene YMR191W, incubated two hours with chemical substance",1.6
same,The level of expressed mRNA in the presence of chemical substance/The level of expressed mRNA in the absence of chemical substance,"yeast gene YMR295C, incubated two hours with chemical substance",1.6
same,The level of expressed mRNA in the presence of chemical substance/The level of expressed mRNA in the absence of chemical substance,"yeast gene YMR316W, incubated two hours with chemical substance",1.9
same,The level of expressed mRNA in the presence of chemical substance/The level of expressed mRNA in the absence of chemical substance,"yeast gene YNL044W, incubated two hours with chemical substance",1.3
same,The level of expressed mRNA in the presence of chemical substance/The level of expressed mRNA in the absence of chemical substance,"yeast gene YNL074C, incubated two hours with chemical substance",1.2
same,The level of expressed mRNA in the presence of chemical substance/The level of expressed mRNA in the absence of chemical substance,"yeast gene YNL092W, incubated two hours with chemical substance",1.8
same,The level of expressed mRNA in the presence of chemical substance/The level of expressed mRNA in the absence of chemical substance,"yeast gene YNL115C, incubated two hours with chemical substance",1.4
same,The level of expressed mRNA in the presence of chemical substance/The level of expressed mRNA in the absence of chemical substance,"yeast gene YNL156C, incubated two hours with chemical substance",1.3
same,The level of expressed mRNA in the presence of chemical substance/The level of expressed mRNA in the absence of chemical substance,"yeast gene YNL234W, incubated two hours with chemical substance",1.8
same,The level of expressed mRNA in the presence of chemical substance/The level of expressed mRNA in the absence of chemical substance,"yeast gene YNL281W, incubated two hours with chemical substance",1.4
same,The level of expressed mRNA in the presence of chemical substance/The level of expressed mRNA in the absence of chemical substance,"yeast gene YNL305C, incubated two hours with chemical substance",1.4
same,The level of expressed mRNA in the presence of chemical substance/The level of expressed mRNA in the absence of chemical substance,"yeast gene YNR068C, incubated two hours with chemical substance",2.6
same,The level of expressed mRNA in the presence of chemical substance/The level of expressed mRNA in the absence of chemical substance,"yeast gene YOL032W, incubated two hours with chemical substance",1.3
same,The level of expressed mRNA in the presence of chemical substance/The level of expressed mRNA in the absence of chemical substance,"yeast gene YOL036W, incubated two hours with chemical substance",0.8
same,The level of expressed mRNA in the presence of chemical substance/The level of expressed mRNA in the absence of chemical substance,"yeast gene YOL047C, incubated two hours with chemical substance",2.5
same,The level of expressed mRNA in the presence of chemical substance/The level of expressed mRNA in the absence of chemical substance,"yeast gene YOL071W, incubated two hours with chemical substance",2.0
same,The level of expressed mRNA in the presence of chemical substance/The level of expressed mRNA in the absence of chemical substance,"yeast gene YOL082W, incubated two hours with chemical substance",2.1
same,The level of expressed mRNA in the presence of chemical substance/The level of expressed mRNA in the absence of chemical substance,"yeast gene YOL083W, incubated two hours with chemical substance",2.8
same,The level of expressed mRNA in the presence of chemical substance/The level of expressed mRNA in the absence of chemical substance,"yeast gene YOL117W, incubated two hours with chemical substance",1.4
same,The level of expressed mRNA in the presence of chemical substance/The level of expressed mRNA in the absence of chemical substance,"yeast gene YOL131W, incubated two hours with chemical substance",1.0
same,The level of expressed mRNA in the presence of chemical substance/The level of expressed mRNA in the absence of chemical substance,yeast gene YOL150C,0.9
same,The level of expressed mRNA in the presence of chemical substance/The level of expressed mRNA in the absence of chemical substance,"yeast gene YOL162W, incubated two hours with chemical substance",1.4
same,The level of expressed mRNA in the presence of chemical substance/The level of expressed mRNA in the absence of chemical substance,"yeast gene YOR019W, incubated two hours with chemical substance",4.7
same,The level of expressed mRNA in the presence of chemical substance/The level of expressed mRNA in the absence of chemical substance,"yeast gene YOR197W, incubated two hours with chemical substance",1.4
same,The level of expressed mRNA in the presence of chemical substance/The level of expressed mRNA in the absence of chemical substance,"yeast gene YPL087W, incubated two hours with chemical substance",7.3
same,The level of expressed mRNA in the presence of chemical substance/The level of expressed mRNA in the absence of chemical substance,"yeast gene YPL196W, incubated two hours with chemical substance",1.7
same,The level of expressed mRNA in the presence of chemical substance/The level of expressed mRNA in the absence of chemical substance,"yeast gene YPL206C, incubated two hours with chemical substance",1.9
same,The level of expressed mRNA in the presence of chemical substance/The level of expressed mRNA in the absence of chemical substance,"yeast gene YPL222W, incubated two hours with chemical substance",1.3
same,The level of expressed mRNA in the presence of chemical substance/The level of expressed mRNA in the absence of chemical substance,"yeast gene YPR023C, incubated two hours with chemical substance",0.8
same,The level of expressed mRNA in the presence of chemical substance/The level of expressed mRNA in the absence of chemical substance,"yeast gene YPR151C, incubated two hours with chemical substance",4.1
